Ends that are not written are not given here.
Key:
[1] = tested on: HeLa cells; test: GFP-NLS protein transduction assay (flow cytometry: Pos cells %, viability %, relative fluorescence intensity; microscopy); conditions: Table 10.3b; Protocol B; HeLa; shuttle 50 μM; GFP-NLS 5 μM; 10 seconds
[2] = Plasmid DNA (pEGFP-C1) transfection by peptides (% cells with GFP signal, cell viability); conditions: human, HeLa cells
[3] = tested on: NKG2A genomic DNA sequence; test: T7E1 DNA cleavage assay / % INDELs after CRISPR/Cpf1-NLS delivery (NK and NK-92 cells); type: cell-based, Human; conditions: gene target NKG2A, CRISPR/Cpf1 1.33 μM, crRNA 2 μM, peptide 6 μM, 1 min in PBS, n=2
Source text: The T7 endonuclease I (T7E1) can be used to detect on-target CRISPR/Cas genome editing events in cultured cells. As an overview, genomic DNA from target cells is amplified by PCR. The PCR products are then denatured and reannealed to allow heteroduplex formation between wild-type DNA and CRISPR/Cas-mutated DNA. T7E1, which recognizes and cleaves mismatched DNA, is used to digest the heteroduplexes. The resulting cleaved and full-length PCR products are visualized by gel electrophoresis.
The T7E1 assay was performed with the Edit-R™ Synthetic crRNA Positive Controls (Dharmacon #U-007000-05) and the T7 Endonuclease I (NEB, Cat #M0302S). After the delivery of the CRISPR/Cas complex, cells were lysed in 100 μL of Phusion™ High-Fidelity DNA polymerase (NEB #M0530S) laboratory with additives. The cells were incubated for 15-30 minutes at 56° C., followed by deactivation for 5 minutes at 96° C. The plate was briefly centrifuged to collect the liquid at bottom of the wells. 50-μL PCR samples were set up for each sample to be analyzed. The PCR samples were heated to 95° C. for 10 minutes and then slowly (>15 minutes) cooled to room temperature. PCR product (-5 μL) was then separated on an agarose gel (2%) to confirm amplification. 15 μL of each reaction was incubated with T7E1 nuclease for 25 minutes at 37° C. […]

[4] = tested on: HeLa cells; type: cell-based, Human; conditions: GFP 5 μM; 5 μM of each peptide; 1 hour; data not shown
[5] = tested on: HeLa cells; type: cell-based; conditions: peptide 5 μM; fold-increase relative to untreated calcein-loaded cells
Source text: Calcein is a membrane-impermeable fluorescent molecule that is readily internalized by cells when administered to the extracellular medium. Its fluorescence is […] and calcein self-quenches at higher concentrations. Once internalized, calcein becomes sequestered at high concentrations in cell endosomes and can be visualized by fluorescence microscopy as a punctate pattern. Following endosomal leakage, calcein is released to the cell cytoplasm and this release can be visualized by fluorescence microscopy as a diffuse pattern.
The cells were allowed to attach by incubating overnight in appropriate growth media, as described in Example 1. The next day, the media in wells was removed and replaced with 50 μL of fresh media without serum containing 62.5 μg/mL (100 μM) of calcein, except for HEK293A (250 μg/mL, 400 μM). […]
Untreated calcein-loaded cells were used as a control to distinguish cells having a baseline of fluorescence due to endosomally-trapped calcein from cells having increased fluorescence due to release of calcein from endosomes. Fluorescence signal means (“mean counts”) were analyzed for endosomal escape quantification. In some cases, the “Mean Factor” was calculated, which corresponds to the fold-increase of the mean counts relative to control (untreated calcein-loaded cells). […] The cellular mortality was monitored with the percentage of cells in the total events scanned. […]

[6] = tested on: HeLa cells; test: Cytotoxic activity of NK92 against HeLa cells with GSK3 inhibitor; type: cell-based, Human; conditions: data not shown
[7] = in vitro; conditions: human, THP-1 cells
[8] = in vitro; conditions: human, HeLa cells, Cell viability (%) (±St Dev.; n = 3)
[9] = tested on: T cells; type: cell-based, human
Procedure: Unless otherwise specified, T cells used herein were obtained from healthy human blood collected in heparinized tubes. T cells were isolated using a Ficoll™ technique (Ficoll-Paque™ GE or Lymphoprep™ Stem Cell Technologies). Briefly, blood was mixed with the Ficoll™ solution in conical tubes (50 mL) and centrifuged at 2280 rpm for 20 minutes. Mononuclear cells were harvested and transferred in another conical tube (50 mL) before washing with PBS and centrifugation at 1100 rpm for 10 minutes. Cells were resuspended in 5 mL of PBS containing 20% FBS. Cells were counted and then incubated in a culture medium composed by RPMI advanced (cat: 12633012 ThermoFisher), 10% FBS, 1% Penstrep (15140122 ThermoFisher), 1% L-glutamine (25030081 ThermoFisher) IL-2 30U/ml). Next, T cells were enriched with a Human T cell Enrichment Kit (StemCell #cat: 19051) by negative selection following the manufacturer instructions. The enriched T cells were validated using a specific anti-CD3 antibody (Biolegend #cat: 300438). At this step, collected cells were typically around 99% T cells. T cells were activated by adding IL-2 at 30 U/mL and the anti-CD28 antibody (ThermoFisher #cat: 16-0289-85) in complete medium for 5 days prior to experimentation. The activation of T cell expansion was then double-checked with both anti-CD25 and anti-CD137 antibodies. […]

[10] = in vitro; conditions: human, HeLa cells
[11] = in vitro
[12] = tested on: HeLa cells; test: FITC-labeled anti-tubulin antibody transduction assay (flow cytometry, cell viability, microscopy); conditions: FITC-labeled anti-tubulin antibody 0.5 μM, HeLa, 1 hour; shuttle 3.5 μM
Procedure: The delivery and microscopy protocols are described in Example 3.
HeLa cells were cultured and tested in the protein transduction assay described in Example 3.1. […] The cells were subjected to flow cytometry analysis as described in Example 3.3.

Compound: YARAAARQARAWEAKLAKALAKALAKHLAKALAKALKACEA [PTD4-KALA]
- Cell viability (%) (±St. Dev.; n = 3) [1]: 91.4 ± 3.67%
- viability [2]: 53.6 ± 3.91%

Compound: FSD100 (HHHHHHFLKIWSRLIKIWTQGRRKGAQAAFRHHHHHH)
- % INDELs [3]: 16%

Compound: FSD101 (HHHHHHRFAAQAGKRRGQTWIKILRSWIKLF)
- % INDELs [3]: 17%

Compound: HHHHHHVWKLFWTLLAAIYGRGKARQKRAKRQARG [Peptide F5D25]
- viability [2]: 98.2 ± 1.19%

Compound: YGRKKRRQRRRC [TAT-Cys, CPD single-domain peptide with C-terminal Cys, reference compound]
- GFP intracellular delivery (fluorescence microscopy) [4]: not successfully delivered intracellularly
- Mean Factor [5]: 1.3

Compound: Cn1cc(C2=C(c3ccc(Cl)cc3Cl)C(=O)NC2=O)c2ccccc21 [SB216763]
- effect on cytotoxic activity of NK92 [6]: enhances the cytotoxic activity of NK92 against HeLa cells

Compound: RQIKIWFQNRRMKWKKC [Penetratin-Cys, reference compound]
- GFP intracellular delivery (fluorescence microscopy) [4]: not successfully delivered intracellularly
- Mean Factor [5]: 1.1

Compound: HHHHHHYARAAARQARA [Peptide 6His-PTD4]
- viability [2]: 97.2 ± 1.34%

Compound: HHHHHHFLKIWSRLIKIWTQGRRKGAQAAFR [FSD21]
- viability at 15 s, 5 µM [7]: 62.5 ± 5.16%
- viability at 0.5 min, 2 µM [7]: 75.6 ± 6.38%
- viability [8]: 75.6 ± 5.99%
- viability of transduced T cells (FSC/SSC, in words) [9]: viability of the transduced T cells was not substantially affected
- viability [10]: 96.2 ± 1.69%

Compound: LLKLWSRLLKLWTQGGSGGGSGRRLKAKRAKA [FSD18]
- viability at 0.5 min, 2 µM [7]: 97.9 ± 1.73%
- viability at 1 min, 1 µM [7]: 95.3 ± 3.11%
- viability at 1 min, 2 µM [7]: 98.6 ± 0.37%
- viability at 0.025 h, 1 µM [7]: 86.5 ± 6.27%
- viability [8]: 82.4%
- viability of transduced T cells (FSC/SSC, in words) [9]: viability of the transduced T cells was not substantially affected
- viability at 0.25 h, 5 µM ([11]; NK cells): 94.9 ± 1.63%
- viability at 0.5 h, 2 µM ([11]; NK cells): 98.3 ± 1%
- viability at 1.5 h, 1 µM ([11]; NK cells): 99.1 ± 0.08%
- viability at 0.5 h, 2 µM ([11]; human, DOHH2 cells): 79.8 ± 6.18%
- viability at 0.5 h, 10 µM ([11]; human, DOHH2 cells): 25 ± 2.66%
- viability at 1.5 h, 1 µM ([11]; human, DOHH2 cells): 62.5 ± 6.17%
- viability at 0.5 h, 2 µM ([11]; human, Jurkat cells): 97.4 ± 1.09%
- viability at 0.5 h, 10 µM ([11]; human, Jurkat cells): 96.6 ± 2.46%
- viability at 1.5 h, 1 µM ([11]; human, Jurkat cells): 98.6 ± 0.39%
- viability at 0.5 h, 2 µM ([11]; human, KMS-12BM cells): 95.1 ± 3.56%
- viability at 0.5 h, 10 µM ([11]; human, KMS-12BM cells): 92.7 ± 4.11%
- viability at 1.5 h, 1 µM ([11]; human, KMS-12BM cells): 97.6 ± 1.05%
- viability at 0.5 h, 2 µM ([11]; human, REC-1 cells): 99 ± 0.39%
- viability at 0.5 h, 10 µM ([11]; human, REC-1 cells): 25 ± 3.17%
- viability at 1.5 h, 1 µM ([11]; human, REC-1 cells): 96.2 ± 2.53%
- viability at 0.5 h, 2 µM ([11]; mouse, HT2 cells): 80.7 ± 7.1%
- viability at 0.5 h, 10 µM ([11]; mouse, HT2 cells): 63.9 ± 5.35%
- viability at 1.5 h, 1 µM ([11]; mouse, HT2 cells): 88.3 ± 7.91%

Compound: CC[C@H](C)[C@H](NC(=O)[C@H](CCCCN)NC(=O)[C@H](CCCCN)NC(=O)[C@H](Cc1ccccc1)NC(=O)[C@H](CC(C)C)NC(=O)[C@H](CCCCN)NC(=O)[C@H](Cc1c[nH]c2ccccc12)NC(=O)[C@@H](N)CCCCN)C(=O)NCC(=O)N[C@@H](C)C(=O)N[C@H](C(=O)N[C@@H](CC(C)C)C(=O)N[C@@H](CCCCN)C(=O)N[C@H](C(=O)N[C@@H](CC(C)C)C(=O)N[C@H](C(=O)N[C@H](C(=O)NCC(=O)N[C@@H](CCCNC(=N)N)C(=O)N[C@@H](CCC(N)=O)C(=O)N[C@H](C(=O)N[C@@H](CCCCN)C(=O)N[C@H](C(=O)N[C@@H](Cc1c[nH]c2ccccc12)C(=O)N[C@@H](Cc1ccccc1)C(=O)N[C@@H](CCC(N)=O)C(=O)N[C@@H](CC(N)=O)C(=O)N[C@@H](CCCNC(=N)N)C(=O)N[C@@H](CCCNC(=N)N)C(=O)N[C@@H](CCSC)C(=O)N[C@@H](CCCCN)C(=O)N[C@@H](Cc1c[nH]c2ccccc12)C(=O)N[C@@H](CCCCN)C(=O)N[C@@H](CCCCN)C(=O)N[C@@H](CS)C(=O)O)[C@@H](C)CC)[C@@H](C)CC)[C@@H](C)O)[C@@H](C)O)C(C)C)C(C)C [CM18-Penetratin-Cys]
- FIG. 19B Cell viability (%) (± St. Dev.; n = 3) [12]: 73 ± 9.5%

Reference: patent publication US12286632B2, “Rationally-designed synthetic peptide shuttle agents for delivering polypeptide cargos from an extracellular space to the cytosol and/or nucleus of a target eukaryotic cell, uses thereof, methods and kits relating to same” (Feldan Bio Inc., priority 2016, dated 2025)
